The values below come from patent US20260184733A1, “CRYSTAL FORM OF NEUROKININ-1 ANTAGONIST PRODRUG COMPOUND” (JIANGSU HENGRUI PHARMACEUTICALS CO., LTD., priority 2022, published 2026).

Common to all, as to format: physicochemical
Data set [1] is described as follows: Solvent residue of the crystal forms determined by gas chromatography. How it is done:
The solvent residue of the crystal form of the compound represented by formula I was determined by gas chromatography, as shown in the table below.

A short description of data set [2]: Dissolution of the raw material in 50% tert-butanol solution when preparing the lyophilized composition. The settings on record: 4.36% (w/v) in 50% tert-butanol with 5% mannitol, stirred at room temperature. How it is done:
Tert-butanol and water were mixed at a volume ratio of 1:1 to form a 50% tert-butanol solution. 90% of the target volume of the solution was taken, and 5% (mass volume percentage) of mannitol and 4.36% of the raw material of the compound represented by formula I were added. The mixture was stirred at room temperature for dissolution (dissolution being considered as the absence of significant blocky or flocculent insoluble substances in the solution). The pH was adjusted to 5 with dilute hydrochloric acid or sodium hydroxide, filtration was performed with a […] organic filtration membrane to obtain a clear solution, and the volume of the clear solution was made constant with 50% tert-butanol. The above-mentioned solution was stored at 4° C. before subpackaging. After subpackaging according to the target volume, half of a stopper was pressed, and a freeze-drying procedure was run. After the completion of the procedure, nitrogen was filled, the remaining stopper was pressed, and the freeze-dried compounds were taken out of the box.

Data set [3] is described as follows: Crystal form conversion on stirring in ethyl acetate at room temperature. The settings on record: 1.0 g in 1.5 mL ethyl acetate, stirred at room temperature, filtered, dried under vacuum. As for the experimental part: 1.0 g of the crystal form I of the compound represented by formula I was added to 1.5 mL of ethyl acetate, and the mixture was stirred at room temperature, filtered, and dried under vacuum.
1.0 g of the crystal form III of the compound represented by formula I was added to 1.5 mL of ethyl acetate, and the mixture was stirred at room temperature, filtered, and dried under vacuum.

For `C[C@@H](OC[C@@]1(c2ccccc2)CC[C@]2(CCC(=O)N2)CN1C(=O)OCOP(=O)(O)O)c1cc(C(F)(F)F)cc(C(F)(F)F)c1` [Crystal form II], in data set [1], the “Solvent residue, comparison of the crystal forms” value is “lowest solvent residue”; the “Solvent residue: Ethyl acetate” value turned out to be 0.0105%; the “Solvent residue: Ethylene glycol dimethyl ether” value is recorded as “Not detected”; the “Solvent residue: Methyl tert-butyl ether” value amounted to 0.1867%. In addition, the “Dissolution behaviour of the raw material” value in data set [2] was “dissolved faster, no agglomeration occurred”.

For the compound `C[C@@H](OC[C@@]1(c2ccccc2)CC[C@]2(CCC(=O)N2)CN1C(=O)OCOP(=O)(O)O)c1cc(C(F)(F)F)cc(C(F)(F)F)c1` [amorphous form], in data set [2], the “Dissolution behaviour of the raw material” value is “agglomerated in a large amount in the solution, resulting in the inability to completely dissolve the raw material”.

As to `C[C@@H](OC[C@@]1(c2ccccc2)CC[C@]2(CCC(=O)N2)CN1C(=O)OCOP(=O)(O)O)c1cc(C(F)(F)F)cc(C(F)(F)F)c1` [Crystal form III], in data set [1], the “Solvent residue: 1,4-Dioxane” value was 6.3% and the “Solvent residue: Ethylene glycol dimethyl ether” value was “Not detected”. For the same compound, the “Crystal form after slurrying” value in data set [3] is “conversion to the crystal form II”.

`C[C@@H](OC[C@@]1(c2ccccc2)CC[C@]2(CCC(=O)N2)CN1C(=O)OCOP(=O)(O)O)c1cc(C(F)(F)F)cc(C(F)(F)F)c1` [Crystal form I]: in data set [1], the “Solvent residue: Ethyl acetate” value came to 0.0293%, the “Solvent residue: Ethylene glycol dimethyl ether” value is on record as “Not detected” and the “Solvent residue: Isopropyl ether” value is on record as 12.0%. The “Crystal form after slurrying” value in data set [3] is listed as “conversion to the crystal form II”.
